From paper PMC5762913, “Probing the molecular basis of hERG drug block with unnatural amino acids” (Scientific Reports, 2018)

Assays:
[1] = test system: hERG Tyr652 and Phe656; assay: Assessment of cation-π interaction in hERG drug block across fluorinated Phe series; conditions: judged from IC50 across Y652 and F656 fluorinated Phe series
Excerpt: Testing whether a cation-π relationship occurs at an aromatic residue can be accomplished by measuring the impact of substitution with a series of fluorinated aromatic amino acids. Successive fluorinations of aromatic side chains yield additive reductions in ability to donate π electrons to cation-π interactions[30]. Through the use of nonsense suppression, we incorporated singly and doubly fluorinated phenylalanine derivatives at both Tyr652 and Phe656. These UAA also have the advantage of providing a sterically conservative means of studying the specific nature of interactions of individual residues. If hERG drug interactions depend largely on cation-π binding interactions at sites Tyr652 and Phe656, then successive fluorinations at these sites should decrease drug affinity in a linear manner[30].
This protocol is repeated in successive sweeps as either control or drug-containing solutions flow into the bath chamber and over the oocyte. […] The steady state current at −50 mV reached at each drug concentration was normalized to the steady state current at −50 mV with no drug. From these normalized values, a concentration-response curve was generated and fit with a Hill equation. IC50 and Hill coefficient values were generated from each Hill fit. […]

[2] = test system: hERG S631A; conditions: S631A mutation which abolishes inactivation, versus WT; cited from earlier work
[3] = test system: nicotinic receptor α-subunit Trp-149 doubly fluorinated; parameters: method as in PMID 9770444; conditions: doubly fluorinating Trp-149 in the α-subunit; cited from earlier work

Row | Compound | Cation – π behaviour? [1] | potency of block [2] | reduction of potency [3]
1 | CN(CCOc1ccc(NS(C)(=O)=O)cc1)CCc1ccc(NS(C)(=O)=O)cc1 [Dofetilide, dofetilide] | No | reduced | –
2 | C=C[C@H]1C[N@@]2CC[C@H]1C[C@@H]2[C@@H](O)c1ccnc2ccc(OC)cc12 [Quinidine, quinidine] | No | reduced | –
3 | CC(=O)OCC[N+](C)(C)C [acetyl choline] | – | – | nearly an order of magnitude
